Reference: patent US5126356A, “Piperidine compounds” (Adir et Compagnie, priority 1989, dated 1992)

Assays:
type L calcium channels = molecular target: T1, type L calcium channels (Oryctolagus cuniculus, UniProt P07293); assay: Binding: displacement of [3H] PN 200-110 at the Ca2+ channel
T1 construct: microsomal fractions enriched with type L calcium channels; from tissue; host or cells: microsomal fractions

type L Ca^2+ channel = molecular target: T2, type L Ca^2+ channel (Rattus norvegicus, UniProt P22002); assay: Inhibition of 45Ca2+ influx through the Ca2+ channel in A7 r5 cells; assay type: cell-based
T2 construct: cell lines from the aorta of newly born rats; host or cells: A7 r5

beagle dogs = assay: Anti-ischaemic activity, Protocol 1: tight coronary stenosis in anaesthetised beagle dogs; assay type: in vivo, dog
Method: The studies are carried out on beagle dogs weighing from 9 to 12 kg which have been anaesthetised with pentobarbital sodium 30 mg/kg i.v., intubated and ventilated, and subjected to a thoracotomy at the 5th left intercostal space.
An electromagnetic ring connected to a Gould SP 2202 electromagnetic flow meter is placed around the circumflex branch of the left coronary artery, and an inflatable balloon is placed just downstream of that ring for the production of coronary stenoses under the control of the coronary output.
Piezoelectric crystals (5 MHz) connected to a Triton sonomicrometer are implanted in the subendocardium of the left ventricular wall, in an area that is to become ischaemic, for measuring local myocardial contractility; epicardial electrodes are placed in the same area for recording the epicardial electrocardiogram.
Myocardial ischaemia is induced by tight coronary stenosis that reduces coronary output by about 70%.
The same coronary stenosis, the effects of which are reversible and reproducible, is produced in the same animal for two periods of 10 minutes, separated by a recovery period of 45 minutes.
Treatments are administered intravenously 2 minutes after coronary stenosis:
injection of solvent after the first coronary stenosis, which serves as control,
injection of the test product after the second coronary stenosis.
Myocardial contractility is evaluated by the proportion of systolic shortening of the lengths of the segments between the piezoelectric crystals.
Hypokinesia in the ischaemic area is expressed as percentage variation relative to the contractility measured in the control period.
Modification of the epicardial ECG in the ischaemic area consists in raising the epicardial ST segment measured in millivolts (mV).

Dopamine D1 = Dopamine D1 (Homo sapiens, UniProt P21728); assay: Binding to neurotransmitter receptors: D1 ([3H] SCH 23390); conditions: read-out: K0.5
Dopamine D1, sequence (P21728 whole entry): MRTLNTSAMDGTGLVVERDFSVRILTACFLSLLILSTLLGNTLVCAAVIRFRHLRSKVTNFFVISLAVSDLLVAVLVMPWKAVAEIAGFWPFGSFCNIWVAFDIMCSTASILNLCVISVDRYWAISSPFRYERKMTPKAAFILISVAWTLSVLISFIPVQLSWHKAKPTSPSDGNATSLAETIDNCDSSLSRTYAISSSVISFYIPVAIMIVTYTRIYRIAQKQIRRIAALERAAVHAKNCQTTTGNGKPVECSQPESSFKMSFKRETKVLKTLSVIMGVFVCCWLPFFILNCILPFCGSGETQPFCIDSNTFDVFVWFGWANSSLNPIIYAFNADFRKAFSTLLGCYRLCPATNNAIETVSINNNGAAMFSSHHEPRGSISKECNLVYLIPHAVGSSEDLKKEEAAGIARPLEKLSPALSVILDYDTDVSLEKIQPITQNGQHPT

T2 sequence (P22002 whole entry): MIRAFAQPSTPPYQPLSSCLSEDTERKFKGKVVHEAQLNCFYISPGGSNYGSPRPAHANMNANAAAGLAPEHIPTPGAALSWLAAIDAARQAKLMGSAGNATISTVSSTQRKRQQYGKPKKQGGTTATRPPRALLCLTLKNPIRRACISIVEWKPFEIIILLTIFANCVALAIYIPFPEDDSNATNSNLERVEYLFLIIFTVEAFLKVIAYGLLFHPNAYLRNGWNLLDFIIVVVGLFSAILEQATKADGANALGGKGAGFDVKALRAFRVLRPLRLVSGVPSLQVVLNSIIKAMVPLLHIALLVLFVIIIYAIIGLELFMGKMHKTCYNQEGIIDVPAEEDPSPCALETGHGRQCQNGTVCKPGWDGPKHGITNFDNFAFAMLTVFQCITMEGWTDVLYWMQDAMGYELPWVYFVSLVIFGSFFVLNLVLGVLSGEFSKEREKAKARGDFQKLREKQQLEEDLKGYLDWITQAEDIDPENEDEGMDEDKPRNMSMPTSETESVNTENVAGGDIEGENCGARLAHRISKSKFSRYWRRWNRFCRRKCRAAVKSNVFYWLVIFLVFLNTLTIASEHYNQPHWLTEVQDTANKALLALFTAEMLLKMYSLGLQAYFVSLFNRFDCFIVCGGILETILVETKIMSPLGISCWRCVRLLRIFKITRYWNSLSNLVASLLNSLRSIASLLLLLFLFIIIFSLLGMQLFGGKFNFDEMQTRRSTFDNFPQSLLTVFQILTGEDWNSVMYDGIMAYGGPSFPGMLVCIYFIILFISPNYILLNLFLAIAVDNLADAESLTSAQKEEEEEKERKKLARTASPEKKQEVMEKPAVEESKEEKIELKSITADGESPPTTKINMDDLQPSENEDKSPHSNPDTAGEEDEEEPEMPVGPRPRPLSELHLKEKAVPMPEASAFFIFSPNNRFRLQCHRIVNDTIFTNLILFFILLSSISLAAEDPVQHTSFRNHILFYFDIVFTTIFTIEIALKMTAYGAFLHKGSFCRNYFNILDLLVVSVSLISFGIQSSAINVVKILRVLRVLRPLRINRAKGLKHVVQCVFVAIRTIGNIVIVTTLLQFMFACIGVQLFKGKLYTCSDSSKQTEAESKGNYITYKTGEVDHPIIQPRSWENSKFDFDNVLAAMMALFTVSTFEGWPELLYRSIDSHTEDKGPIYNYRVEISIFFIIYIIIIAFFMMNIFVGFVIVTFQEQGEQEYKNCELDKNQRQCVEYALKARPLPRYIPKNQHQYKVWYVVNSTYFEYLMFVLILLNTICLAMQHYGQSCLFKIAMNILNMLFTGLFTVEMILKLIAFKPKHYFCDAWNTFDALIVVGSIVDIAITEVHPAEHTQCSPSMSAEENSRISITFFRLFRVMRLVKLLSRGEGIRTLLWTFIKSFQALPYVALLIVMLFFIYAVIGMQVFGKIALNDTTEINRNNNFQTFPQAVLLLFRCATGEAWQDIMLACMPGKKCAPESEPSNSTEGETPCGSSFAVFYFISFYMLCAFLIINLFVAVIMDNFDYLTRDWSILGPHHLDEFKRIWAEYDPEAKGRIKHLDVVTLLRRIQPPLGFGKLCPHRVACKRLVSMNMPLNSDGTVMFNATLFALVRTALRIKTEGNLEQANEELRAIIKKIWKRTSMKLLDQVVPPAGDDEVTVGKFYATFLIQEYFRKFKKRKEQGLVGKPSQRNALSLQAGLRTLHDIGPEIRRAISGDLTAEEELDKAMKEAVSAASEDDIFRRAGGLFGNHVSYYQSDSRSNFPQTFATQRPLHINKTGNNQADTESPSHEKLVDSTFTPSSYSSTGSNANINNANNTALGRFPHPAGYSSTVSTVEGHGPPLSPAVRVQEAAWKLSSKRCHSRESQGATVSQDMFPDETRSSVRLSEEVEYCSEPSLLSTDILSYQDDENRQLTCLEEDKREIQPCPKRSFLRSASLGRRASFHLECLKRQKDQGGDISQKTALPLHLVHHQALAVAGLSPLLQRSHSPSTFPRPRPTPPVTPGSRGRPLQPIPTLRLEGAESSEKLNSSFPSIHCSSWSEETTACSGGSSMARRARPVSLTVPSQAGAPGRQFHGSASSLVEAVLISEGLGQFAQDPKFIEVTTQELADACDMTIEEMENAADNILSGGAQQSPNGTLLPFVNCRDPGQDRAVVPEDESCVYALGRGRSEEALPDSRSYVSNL
T2 sequence (P54290 25-945 partner limits assumed): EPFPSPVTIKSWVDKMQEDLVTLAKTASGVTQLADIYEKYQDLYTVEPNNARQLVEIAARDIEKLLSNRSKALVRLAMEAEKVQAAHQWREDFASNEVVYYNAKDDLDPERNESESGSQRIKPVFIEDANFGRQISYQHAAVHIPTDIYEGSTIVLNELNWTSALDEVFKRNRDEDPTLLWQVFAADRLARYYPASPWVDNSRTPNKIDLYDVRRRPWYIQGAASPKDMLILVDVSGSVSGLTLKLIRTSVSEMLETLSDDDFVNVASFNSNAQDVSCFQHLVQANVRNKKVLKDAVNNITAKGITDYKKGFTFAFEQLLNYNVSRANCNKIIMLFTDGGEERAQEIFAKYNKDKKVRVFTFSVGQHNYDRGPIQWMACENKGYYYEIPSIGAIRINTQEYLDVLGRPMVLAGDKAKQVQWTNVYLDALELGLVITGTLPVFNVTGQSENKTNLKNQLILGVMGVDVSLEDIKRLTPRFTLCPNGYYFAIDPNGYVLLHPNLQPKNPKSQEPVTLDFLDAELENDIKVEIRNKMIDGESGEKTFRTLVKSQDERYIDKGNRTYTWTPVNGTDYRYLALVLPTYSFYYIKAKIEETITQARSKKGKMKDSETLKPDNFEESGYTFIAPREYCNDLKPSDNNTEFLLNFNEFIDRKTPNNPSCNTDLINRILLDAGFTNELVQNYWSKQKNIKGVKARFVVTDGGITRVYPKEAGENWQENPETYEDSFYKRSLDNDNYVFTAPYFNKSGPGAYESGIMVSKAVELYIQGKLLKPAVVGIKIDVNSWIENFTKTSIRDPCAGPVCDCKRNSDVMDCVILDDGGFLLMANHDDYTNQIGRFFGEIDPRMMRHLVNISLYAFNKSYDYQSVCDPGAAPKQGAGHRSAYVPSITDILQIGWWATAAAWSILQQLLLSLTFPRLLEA
T2 sequence (P54290 946-1091 partner limits assumed): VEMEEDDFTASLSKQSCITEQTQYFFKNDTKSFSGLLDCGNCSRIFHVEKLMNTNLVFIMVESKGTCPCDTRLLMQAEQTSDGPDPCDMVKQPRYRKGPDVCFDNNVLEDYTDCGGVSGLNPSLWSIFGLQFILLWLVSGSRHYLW

- IC50 (type L calcium channels; [3H] PN 200-110, read-out: K0.5 (50% of specifically fixed radioactivity displaced)): 1000 nM
- inhibition of Ca2+ influx (in words) (type L Ca^2+ channel): inhibition of the influx of Ca^2+
- IC50 (type L Ca^2+ channel; 45Ca2+ influx, A7 r5 cells, read-out: K0.5 (50% of 45Ca2+ influx inhibited)): 3000 nM
- IC50 (Dopamine D1): 300 nM
Compound: COc1ccc(CSC2CCN(CC=Cc3ccccc3)CC2)c(OC)c1OC [Example 1, 4-(2,3,4-trimethoxybenzylthio)-1-cinnamylpiperidine]
- binding to the slow Ca2+ channel (in words) (type L calcium channels): binds to the receptors of the slow Ca^2+ channel
- Contractility delta % (beagle dogs; 10 minutes after treatment, 1 mg/kg i.v., solvent -44.5): -24.3%
- Epicardial ST delta mV (beagle dogs; 10 minutes after treatment, 1 mg/kg, solvent +4): +2 mV
- Epicardial ST delta mV (beagle dogs; Stenosis (before treatment), 1 mg/kg group, solvent +4.5): +4.5 mV
- Contractility delta % (beagle dogs; Stenosis (before treatment), 1 mg/kg i.v. group, solvent -45.8): -45%
- anti-ischaemic effect (in words) (beagle dogs; intravenous, Protocols 1 and 2): markedly reduces both preventively and curatively the electrocardiographic modifications and the modifications of myocardial contractility induced by ischaemia
